Measured values reported in patent US20250092044A1, “Kinase Inhibitors” (Incyte Corporation, priority 2023, published 2025).

How the values were obtained:
[1] = molecular target: catalytic domain (JH1) of human JAK2 (Homo sapiens (Human), UniProt O60674); assay: JAK2 LanthaScreen JH1 Binding Assay; conditions: read-out: JH1 Bind IC50
Outline: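 FLAG-tagged biotinylated JH1 (aa 826-1132, baculovirus-expressed), 1.5 nM, with serially diluted compound, 50 nM fluorescent tracer and 0.5 nM streptavidin-Tb in pH 7.5 Tris buffer, 2 h at 25 °C; nonspecific binding with 2 mM ATP. TR-FRET read, IC50 by four-parameter fit.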

FLT3 [2] = molecular target: FLT3 (Homo sapiens (Human), UniProt P36888); assay: FLT3 Enzymatic Assay; format: biochemical; conditions: 1 mM ATP
FLT3 (Homo sapiens (Human), UniProt P36888), sequence (P36888 27-993, species assumed): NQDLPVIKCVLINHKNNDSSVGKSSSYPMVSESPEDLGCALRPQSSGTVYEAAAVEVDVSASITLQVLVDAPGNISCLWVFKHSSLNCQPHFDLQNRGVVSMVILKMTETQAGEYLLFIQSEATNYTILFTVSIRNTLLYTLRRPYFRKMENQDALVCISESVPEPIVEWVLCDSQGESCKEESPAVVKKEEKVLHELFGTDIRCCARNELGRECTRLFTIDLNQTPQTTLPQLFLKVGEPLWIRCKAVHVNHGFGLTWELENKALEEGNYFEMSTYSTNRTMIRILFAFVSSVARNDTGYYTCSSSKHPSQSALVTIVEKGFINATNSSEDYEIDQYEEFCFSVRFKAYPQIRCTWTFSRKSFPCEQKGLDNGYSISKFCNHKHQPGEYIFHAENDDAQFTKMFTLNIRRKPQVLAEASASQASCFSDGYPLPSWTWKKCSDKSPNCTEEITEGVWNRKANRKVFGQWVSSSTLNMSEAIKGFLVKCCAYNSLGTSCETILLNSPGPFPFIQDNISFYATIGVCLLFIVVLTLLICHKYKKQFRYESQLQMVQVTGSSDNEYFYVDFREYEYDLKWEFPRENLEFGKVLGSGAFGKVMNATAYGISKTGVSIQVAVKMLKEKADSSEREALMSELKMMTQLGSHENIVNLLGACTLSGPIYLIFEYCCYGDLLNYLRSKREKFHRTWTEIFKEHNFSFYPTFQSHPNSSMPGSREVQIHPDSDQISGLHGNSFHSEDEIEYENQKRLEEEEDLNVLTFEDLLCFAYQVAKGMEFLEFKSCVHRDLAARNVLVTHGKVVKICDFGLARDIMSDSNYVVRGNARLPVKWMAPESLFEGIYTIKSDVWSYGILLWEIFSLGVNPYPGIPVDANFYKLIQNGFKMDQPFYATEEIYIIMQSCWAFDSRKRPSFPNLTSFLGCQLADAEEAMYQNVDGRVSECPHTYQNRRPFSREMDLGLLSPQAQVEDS
Outline: (§1)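 Room-temperature HTRF kinase assay (665/620 nm ratio) with 0.011 nM FLT3, 1 mM ATP, 500 nM biotinylated TK substrate in HEPES pH 7.0 buffer with MgCl2 and DTT; 0.5% DMSO final. Read after 60 min incubation; IC50 fitted from percent control activity versus log concentration, no-ATP wells as negative control.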

FLT3 [3] = assay: FLT3 Enzymatic Assay; format: biochemical
Outline: as §1

TRKA [4] = molecular target: TRKA (Homo sapiens (Human), UniProt P04629); assay: TRKA Enzymatic Assay; format: biochemical; conditions: 1 mM ATP
TRKA (Homo sapiens (Human), UniProt P04629), sequence (P04629 33-796, species assumed): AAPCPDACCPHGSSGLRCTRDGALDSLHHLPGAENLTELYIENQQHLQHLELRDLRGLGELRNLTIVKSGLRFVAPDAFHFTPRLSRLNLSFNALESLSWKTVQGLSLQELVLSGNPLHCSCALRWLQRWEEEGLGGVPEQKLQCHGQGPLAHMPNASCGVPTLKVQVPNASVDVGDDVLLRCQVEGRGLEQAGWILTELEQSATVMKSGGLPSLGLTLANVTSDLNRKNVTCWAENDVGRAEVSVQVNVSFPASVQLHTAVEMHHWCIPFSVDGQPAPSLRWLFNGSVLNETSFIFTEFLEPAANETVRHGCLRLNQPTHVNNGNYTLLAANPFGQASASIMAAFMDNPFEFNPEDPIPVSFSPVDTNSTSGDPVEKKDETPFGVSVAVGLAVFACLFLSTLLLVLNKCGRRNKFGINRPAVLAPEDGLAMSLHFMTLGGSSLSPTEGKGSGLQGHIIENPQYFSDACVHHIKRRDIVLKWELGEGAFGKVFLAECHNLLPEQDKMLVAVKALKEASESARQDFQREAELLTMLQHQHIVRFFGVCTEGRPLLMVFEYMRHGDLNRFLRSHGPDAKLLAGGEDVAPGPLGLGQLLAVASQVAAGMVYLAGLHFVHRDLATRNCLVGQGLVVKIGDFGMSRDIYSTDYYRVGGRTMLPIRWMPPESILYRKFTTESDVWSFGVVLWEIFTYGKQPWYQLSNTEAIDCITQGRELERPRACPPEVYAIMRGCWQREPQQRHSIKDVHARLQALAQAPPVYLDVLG
Outline: (§2)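 Reaction contained 0.58 nM TRKA, 1 mM ATP, 500 nM biotinylated TK substrate and 62.5 nM SEB reagent in HEPES 50 mM pH 7.0 with 10 mM MgCl2, 1 mM DTT and 0.1 mM orthovanadate, 0.5% DMSO, ATP-initiated. After 60 min at room temperature, the TR-FRET 665/620 nm ratio was read. IC50 was fitted from percent control activity versus log concentration, with DMSO and no-ATP wells as controls.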

TRKA [5] = assay: TRKA Enzymatic Assay; format: biochemical
Outline: as §2

[6] = tested on: STAT5 (Tyr694) phosphorylation in SET-2 cells; assay: STAT5 (Tyr694) Phosphorylation Cell Based Assay; conditions: Homo sapiens, 2 hours, read-out: SET2 IC50
Outline: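 SET-2 cells in RPMI with 10% FBS were exposed to compound for 2 h at 37 °C (0.5% DMSO final). After lysis, phospho-STAT5 (Tyr694) was read by HTRF (665/620 ratio) after 24 h antibody incubation at room temperature. IC50 was fitted from percent control activity versus log concentration.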

catalytic domain (JH1) of human JAK2, sequence (O60674 826-1132): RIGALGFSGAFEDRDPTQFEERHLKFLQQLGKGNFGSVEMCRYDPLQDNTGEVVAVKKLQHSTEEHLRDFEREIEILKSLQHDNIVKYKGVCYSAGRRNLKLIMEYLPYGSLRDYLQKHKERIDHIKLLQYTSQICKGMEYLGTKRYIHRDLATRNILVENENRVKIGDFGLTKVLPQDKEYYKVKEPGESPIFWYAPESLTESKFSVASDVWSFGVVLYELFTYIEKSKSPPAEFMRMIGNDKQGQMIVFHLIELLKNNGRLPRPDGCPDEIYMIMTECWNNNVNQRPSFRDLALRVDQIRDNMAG

Row | SMILES | IC50 [1] [µM] | IC50 (FLT3 [2]) [µM] | Selectivity FLT3/JH2 V617F (FLT3 [3]) | IC50 (TRKA [4]) [µM] | Selectivity TRKA/JH2 V617F (TRKA [5]) | IC50 [6] [µM]
1 | COC(=O)N[C@@H]1CC[C@@H](n2c(=O)n(C)c3cnc4[nH]c(-c5ccc(C(=O)NC6CC6C(F)(F)F)c(F)c5)c(-c5ccc6c(cnn6C(C)C)c5)c4c32)C1 (stereo partly drawn) [Example 10, Methyl ((1R,3R)-3-(7-(3-fluoro-4-((2-(trifluoromethyl)cyclopropyl)carbamoyl)phenyl)-8-(1-isopropyl-1H-indazol-5-yl)-3-methyl-2-oxo-3,6-dihydroimidazo[4,5-d]pyrrolo[2,3-b]pyridin-1(2H)-yl)cyclopentyl)carbamate] | > 1 | > 2.5 | ****** (selectivity of >12500-fold) | > 2.5 | ****** (selectivity of >12500-fold) | 0.3 to 0.8
2 | CNC(=O)c1ccc(-c2[nH]c3ncc4c(c3c2-c2ccc3c(cnn3C(C)C)c2)n([C@@H]2CC[C@@H](NC(=O)OC)C2)c(=O)n4C)cc1F [Example 12, Methyl ((1R,3R)-3-(7-(3-fluoro-4-(methylcarbamoyl)phenyl)-8-(1-isopropyl-1H-indazol-5-yl)-3-methyl-2-oxo-3,6-dihydroimidazo[4,5-d]pyrrolo[2,3-b]pyridin-1(2H)-yl)cyclopentyl)carbamate] | > 1 | > 2.5 | ****** (selectivity of >12500-fold) | > 2.5 | ****** (selectivity of >12500-fold) | ≤ 0.3
3 | COC(=O)N[C@@H]1CC[C@@H](n2c(=O)n(C)c3cnc4[nH]c(-c5ccc(C(=O)NC6CC6(F)F)c(F)c5)c(-c5ccc6c(cnn6C(C)C)c5)c4c32)C1 (stereo partly drawn) [Example 9, Methyl ((1R,3R)-3-(7-(4-((2,2-difluorocyclopropyl)carbamoyl)-3-fluorophenyl)-8-(1-isopropyl-1H-indazol-5-yl)-3-methyl-2-oxo-3,6-dihydroimidazo[4,5-d]pyrrolo[2,3-b]pyridin-1(2H)-yl)cyclopentyl)carbamate] | > 1 | > 2.5 | ****** (selectivity of >12500-fold) | > 2.5 | ****** (selectivity of >12500-fold) | 0.3 to 0.8
4 | COCCNC(=O)c1ccc(-c2[nH]c3ncc4c(c3c2-c2ccc3c(cnn3C(C)C)c2)n([C@@H]2CC[C@@H](NC(=O)OC)C2)c(=O)n4C)cc1F [Example 14, Methyl ((1R,3R)-3-(7-(3-fluoro-4-((2-methoxyethyl)carbamoyl)phenyl)-8-(1-isopropyl-1H-indazol-5-yl)-3-methyl-2-oxo-3,6-dihydroimidazo[4,5-d]pyrrolo[2,3-b]pyridin-1(2H)-yl)cyclopentyl)carbamate] | > 1 | > 2.5 | ****** (selectivity of >12500-fold) | > 2.5 | ****** (selectivity of >12500-fold) | ≤ 0.3
5 | COC(=O)N[C@@H]1CC[C@@H](n2c(=O)n(C)c3cnc4[nH]c(-c5ccc(C(=O)NC6(C(F)(F)F)CC6)c(F)c5)c(-c5ccc6c(cnn6C(C)C)c5)c4c32)C1 [Example 13, Methyl ((1R,3R)-3-(7-(3-fluoro-4-((1-(trifluoromethyl)cyclopropyl)carbamoyl)phenyl)-8-(1-isopropyl-1H-indazol-5-yl)-3-methyl-2-oxo-3,6-dihydroimidazo[4,5-d]pyrrolo[2,3-b]pyridin-1(2H)-yl)cyclopentyl)carbamate] | > 1 | > 2.5 | ****** (selectivity of >12500-fold) | > 2.5 | ***** (selectivity of >5000-fold to ≤12500-fold) | 0.3 to 0.8
6 | [2H]C([2H])([2H])N(Cc1ccc(-c2[nH]c3ncc4c(c3c2-c2ccc3c(c2)CC(C)(C)O3)n([C@@H]2CC[C@@H](NC(=O)OC)C2)c(=O)n4C([2H])([2H])[2H])cc1)C([2H])([2H])[2H] [Example 25, Methyl ((1R,3R)-3-(7-(4-((bis(methyl-d3)amino)methyl)phenyl)-8-(2,2-dimethyl-2,3-dihydrobenzofuran-5-yl)-3-(methyl-d3)-2-oxo-3,6-dihydroimidazo[4,5-d]pyrrolo[2,3-b]pyridin-1(2H)-yl)cyclopentyl)carbamate] | > 1 | 0.25 to 1.25 | **** (selectivity of >1750-fold to ≤5000-fold) | 0.25 to 1.25 | **** (selectivity of >1750-fold to ≤5000-fold) | ≤ 0.3
7 | [2H]C([2H])([2H])N(Cc1ccc(-c2[nH]c3ncc4c(c3c2-c2ccc3c(c2)COC3(C)C)n([C@@H]2CC[C@@H](NC(=O)OC)C2)c(=O)n4C([2H])([2H])[2H])cc1)C([2H])([2H])[2H] [Example 29, Methyl ((1R,3R)-3-(7-(4-((bis(methyl-d3)amino)methyl)phenyl)-8-(1,1-dimethyl-1,3-dihydroisobenzofuran-5-yl)-3-(methyl-d3)-2-oxo-3,6-dihydroimidazo[4,5-d]pyrrolo[2,3-b]pyridin-1(2H)-yl)cyclopentyl)carbamate] | > 1 | 0.25 to 1.25 | **** (selectivity of >1750-fold to ≤5000-fold) | 1.25 to 2.5 | ****** (selectivity of >12500-fold) | ≤ 0.3
8 | COC(=O)N[C@@H]1CC[C@@H](n2c(=O)n(C)c3cnc4[nH]c(-c5ccc(C(=O)NC6CC6)c(F)c5)c(-c5ccc6c(cnn6C(C)C)c5)c4c32)C1 [Example 8, Methyl ((1R,3R)-3-(7-(4-(cyclopropylcarbamoyl)-3-fluorophenyl)-8-(1-isopropyl-1H-indazol-5-yl)-3-methyl-2-oxo-3,6-dihydroimidazo[4,5-d]pyrrolo[2,3-b]pyridin-1(2H)-yl)cyclopentyl)carbamate] | > 1 | > 2.5 | ****** (selectivity of >12500-fold) | > 2.5 | ****** (selectivity of >12500-fold) | 0.3 to 0.8
9 | COC(=O)N[C@@H]1CC[C@@H](n2c(=O)n(C)c3cnc4[nH]c(-c5ccc(C(=O)NCC(F)(F)F)c(F)c5)c(-c5ccc6c(cnn6C(C)C)c5)c4c32)C1 [Example 11, Methyl ((1R,3R)-3-(7-(3-fluoro-4-((2,2,2-trifluoroethyl)carbamoyl)phenyl)-8-(1-isopropyl-1H-indazol-5-yl)-3-methyl-2-oxo-3,6-dihydroimidazo[4,5-d]pyrrolo[2,3-b]pyridin-1(2H)-yl)cyclopentyl)carbamate] | > 1 | > 2.5 | ****** (selectivity of >12500-fold) | > 2.5 | ****** (selectivity of >12500-fold) | ≤ 0.3
